Source: patent US20050164370A1 (priority 2003, published 2005)

Tests used:
cytokinin receptor AHK2Δ = molecular target: T1, cytokinin receptor AHK2Δ (Arabidopsis thaliana, UniProt Q9C5U2); conditions: TM182-AHK2Δ, DOLU+Glu agar, 1 nM to 100 μM tested, 30° C. for 30 hours
T1 sequence (Q9C5U2 196-1176): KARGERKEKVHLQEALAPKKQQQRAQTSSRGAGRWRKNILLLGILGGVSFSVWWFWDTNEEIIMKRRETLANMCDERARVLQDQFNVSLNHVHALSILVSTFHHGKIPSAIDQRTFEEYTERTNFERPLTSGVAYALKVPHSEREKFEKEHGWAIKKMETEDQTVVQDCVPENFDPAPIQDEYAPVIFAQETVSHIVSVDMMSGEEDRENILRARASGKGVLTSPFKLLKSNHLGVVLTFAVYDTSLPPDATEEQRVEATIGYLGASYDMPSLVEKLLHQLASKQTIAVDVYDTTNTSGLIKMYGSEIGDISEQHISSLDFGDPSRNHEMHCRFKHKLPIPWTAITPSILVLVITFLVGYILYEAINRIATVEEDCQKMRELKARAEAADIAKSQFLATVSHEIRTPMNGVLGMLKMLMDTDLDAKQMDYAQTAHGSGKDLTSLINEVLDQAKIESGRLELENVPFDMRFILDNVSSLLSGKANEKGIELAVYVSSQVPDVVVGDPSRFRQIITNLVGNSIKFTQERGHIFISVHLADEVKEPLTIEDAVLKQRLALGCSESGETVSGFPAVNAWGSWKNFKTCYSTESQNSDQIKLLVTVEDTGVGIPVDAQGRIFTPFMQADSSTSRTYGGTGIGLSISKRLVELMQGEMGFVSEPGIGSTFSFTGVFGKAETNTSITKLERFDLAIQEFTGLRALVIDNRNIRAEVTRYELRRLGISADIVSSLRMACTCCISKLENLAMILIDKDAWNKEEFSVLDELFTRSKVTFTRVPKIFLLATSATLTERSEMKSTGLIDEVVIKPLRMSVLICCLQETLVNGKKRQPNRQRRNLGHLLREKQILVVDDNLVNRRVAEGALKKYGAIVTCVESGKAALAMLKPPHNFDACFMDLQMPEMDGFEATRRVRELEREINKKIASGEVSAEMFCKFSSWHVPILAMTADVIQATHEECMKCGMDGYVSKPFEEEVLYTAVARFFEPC
Experimental: (§1) A culture solution 10 μl (about 800 clones of yeast) of the transformed cells TM182-CRE1, TM182-AHK2, TM182-AHK2Δ and TM182-AHK3 produced by the example 12 was spotted on DOLU+Glu agar media containing 10 μM of trans-zeatin and cultured at 30° C. for 30 hours. After incubation, the growth state of the transformed cells was observed and photographed by a digital camera.
(§2) Culture solutions of the transformed cells TM182-CRE1, TM182-AHK2Δ and TM182-AHK2 produced by the reference example 1 were spotted on DOLU+Glu agar media containing cytokinin in a variety of concentrations (1 nM, 10 nM, 100 nM, 1 μM, 10 μM, 100 μM) and cultured at 30° C. for 30 hours. After incubation, the growth state of the transformed cells was observed and photographed by a digital camera.

cytokinin receptor CRE1 = cytokinin receptor CRE1 (Arabidopsis thaliana, UniProt Q9C5U0, S567G/T1018A); conditions: TM182-CRE1, DOLU+Glu agar, 1 nM to 100 μM tested, 30° C. for 30 hours
Chain of cytokinin receptor CRE1 (Q9C5U0 24-1080 S567G/T1018A): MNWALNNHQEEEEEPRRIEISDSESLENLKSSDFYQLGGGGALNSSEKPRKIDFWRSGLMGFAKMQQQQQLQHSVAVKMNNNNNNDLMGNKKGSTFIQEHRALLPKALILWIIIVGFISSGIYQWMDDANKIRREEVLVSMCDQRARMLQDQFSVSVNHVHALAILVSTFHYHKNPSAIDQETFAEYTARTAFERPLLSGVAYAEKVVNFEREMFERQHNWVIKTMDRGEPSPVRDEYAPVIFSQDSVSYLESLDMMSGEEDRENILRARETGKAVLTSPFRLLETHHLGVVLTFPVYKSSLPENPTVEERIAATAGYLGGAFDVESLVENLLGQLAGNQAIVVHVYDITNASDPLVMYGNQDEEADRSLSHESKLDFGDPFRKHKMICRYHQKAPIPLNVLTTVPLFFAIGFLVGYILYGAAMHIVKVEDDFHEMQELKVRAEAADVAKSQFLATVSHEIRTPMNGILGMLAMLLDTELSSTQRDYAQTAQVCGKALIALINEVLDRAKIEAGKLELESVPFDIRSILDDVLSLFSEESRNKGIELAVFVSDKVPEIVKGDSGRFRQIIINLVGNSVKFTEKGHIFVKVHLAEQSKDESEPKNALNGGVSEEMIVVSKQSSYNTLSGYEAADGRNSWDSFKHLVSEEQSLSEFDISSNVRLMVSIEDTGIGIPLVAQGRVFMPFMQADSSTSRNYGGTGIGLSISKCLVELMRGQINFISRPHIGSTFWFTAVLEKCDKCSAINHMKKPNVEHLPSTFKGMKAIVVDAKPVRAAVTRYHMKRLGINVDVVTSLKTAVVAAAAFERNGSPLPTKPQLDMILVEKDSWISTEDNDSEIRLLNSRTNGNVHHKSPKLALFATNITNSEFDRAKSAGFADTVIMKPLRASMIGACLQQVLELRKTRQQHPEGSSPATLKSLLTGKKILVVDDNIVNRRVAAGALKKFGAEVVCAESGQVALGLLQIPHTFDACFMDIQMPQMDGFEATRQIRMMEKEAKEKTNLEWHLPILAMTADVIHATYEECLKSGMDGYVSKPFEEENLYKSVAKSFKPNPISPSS
Experimental: as §1, §2

cytokinin receptor AHK2 = molecular target: T2, cytokinin receptor AHK2 (Arabidopsis thaliana, UniProt Q9C5U2); conditions: TM182-AHK2, DOLU+Glu agar, 1 nM to 100 μM tested, 30° C. for 30 hours
T2 sequence (Q9C5U2 1-1176): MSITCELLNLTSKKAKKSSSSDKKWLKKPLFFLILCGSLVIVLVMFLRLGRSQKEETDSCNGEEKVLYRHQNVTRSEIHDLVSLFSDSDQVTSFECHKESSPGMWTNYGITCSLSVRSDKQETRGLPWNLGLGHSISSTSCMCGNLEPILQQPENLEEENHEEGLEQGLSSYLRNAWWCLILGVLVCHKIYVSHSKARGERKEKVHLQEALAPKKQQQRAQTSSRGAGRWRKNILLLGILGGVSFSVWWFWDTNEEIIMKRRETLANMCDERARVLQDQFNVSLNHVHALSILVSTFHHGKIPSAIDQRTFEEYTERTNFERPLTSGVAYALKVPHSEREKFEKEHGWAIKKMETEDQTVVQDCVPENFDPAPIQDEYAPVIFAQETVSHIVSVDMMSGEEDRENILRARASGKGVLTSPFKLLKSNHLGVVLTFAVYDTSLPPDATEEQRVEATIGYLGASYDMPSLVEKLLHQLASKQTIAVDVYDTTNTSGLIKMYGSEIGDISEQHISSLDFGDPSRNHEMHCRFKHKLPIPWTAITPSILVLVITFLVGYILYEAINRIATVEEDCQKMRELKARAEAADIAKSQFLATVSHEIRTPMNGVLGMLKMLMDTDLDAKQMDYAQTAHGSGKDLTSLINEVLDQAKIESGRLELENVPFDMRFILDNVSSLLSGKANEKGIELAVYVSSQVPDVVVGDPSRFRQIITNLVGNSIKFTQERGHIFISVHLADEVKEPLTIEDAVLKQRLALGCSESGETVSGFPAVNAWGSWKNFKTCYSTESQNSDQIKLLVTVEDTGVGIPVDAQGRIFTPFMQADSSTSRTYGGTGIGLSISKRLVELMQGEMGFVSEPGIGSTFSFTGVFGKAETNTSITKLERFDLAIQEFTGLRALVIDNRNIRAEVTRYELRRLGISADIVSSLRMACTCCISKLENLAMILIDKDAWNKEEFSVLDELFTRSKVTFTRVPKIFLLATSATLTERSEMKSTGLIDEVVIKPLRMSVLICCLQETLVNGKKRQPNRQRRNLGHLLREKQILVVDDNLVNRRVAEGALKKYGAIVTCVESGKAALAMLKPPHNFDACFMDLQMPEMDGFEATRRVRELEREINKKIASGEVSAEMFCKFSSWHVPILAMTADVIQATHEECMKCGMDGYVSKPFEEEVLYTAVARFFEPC
Experimental: as §1, §2

lowest observed supply concentration in which the transformed cells could be grown (cytokinin receptor AHK2Δ): 1 µM
lowest observed supply concentration in which the transformed cells could be grown (cytokinin receptor CRE1): no growth
lowest observed supply concentration in which the transformed cells could be grown (cytokinin receptor AHK2): 10 µM
SMILES: C/C(=C/CNc1ncnc2nc[nH]c12)CO [cis-zeatin]
